What was measured:
[1] = tested on: neuropathic guinea-pigs; experiment: Side-effects observed after administration in the neuropathic pain model; type: in vivo, guinea pig
Method: (§1) The enantiomers of the compound of formula I are administered daily in 0.5% methyl-cellulose/water, with Trileptal™ included in each experiment as positive control. Each experiment uses 6 randomly assigned animals per treatment group. Statistical analysis is carried out on withdrawal threshold data comparing test to vehicle.
The R-enantiomer of the compound of formula I produces a dose-related reversal of mechanical hyperalgesia in neuropathic guinea-pigs. A maximum reversal of 73% is observed 1 h following administration with a calculated D50 value of 47 mg/kg.

[2] = tested on: neuropathic guinea-pigs; experiment: Reversal of mechanical hyperalgesia in a model of neuropathic pain (partial sciatic nerve ligation, paw withdrawal threshold); type: in vivo, guinea pig
Description: Neuropathic hyperalgesia is induced by partial ligation of the left sciatic nerve (Seltzer et al, Pain 43, 1990, 205-218; Campbell et al, Neuroscience 87, 1998, 527-532). Briefly, male Dunkin Hartley guinea pigs (200-250 g) are anaesthetized with isoflurane in N2O:O2, the left sciatic nerve exposed at mid thigh level through a small incision and ⅓ to ½ of the nerve thickness tightly ligated within a 7.0 silk suture. The wound is closed and the animals are allowed to recover from surgery for 12 to 15 days.
Mechanical hyperalgesia is assessed by measuring paw withdrawal thresholds to an increasing pressure stimulus placed onto the dorsal surface of the paw using an analgesymeter (Ugo-Basile, Milan) with a cut-off of 250 g. Withdrawal are measured on both the ipsilateral (ligated) and contralateral (unligated) paw prior to and then up to 6 h following drug or vehicle administration. Reversal of hyperalgesia at each time point is calculated according to the following formula, which uses the contralateral paw as a reference: […]
as §1

[3] = 1 h following administration, neuropathic guinea-pigs
[4] = highest dose tested (100 mg/kg)

Question: What does the source list for `NC(=O)N1c2ccccc2C[C@@H](O)c2ccccc21` (single isomer, unassigned) [R-enantiomer, R(−)-10,11-dihydro-10-hydroxy-5H-dibenzo[b,f]azepine-5-carboxamide]?
Answer: side-effects ([1]; highest dose): comparatively mild side-effect; calculated D50 value (reversal of mechanical hyperalgesia) [2, 3]: 47 mg/kg; maximum reversal of mechanical hyperalgesia [2, 3]: 73%; duration of anti-hyperalgesic effect ([2]; 6 h following administration): significant activity

Question: With `NC(=O)N1c2ccccc2C[C@H](O)c2ccccc21` (single isomer, unassigned) [S-enantiomer, S(+)-10,11-dihydro-10-hydroxy-5H-dibenzo[b,f]azepine-5-carboxamide] as the compound, how does the side-effects ([1]; at doses that reverse mechanical hyperalgesia) read?
Answer: marked side-effects, principally ataxia and catalepsy

Question: What about the anti-hyperalgesic activity [2, 4] of the same compound?
Answer: observed

Question: What about the “apparent maximal reversal of hyperalgesia” value [2, 4] of the same compound?
Answer: 55%

Question: And the anti-hyperalgesic activity ([2]; lower doses (below 100 mg/kg))?
Answer: no significant effect

Source: US20090054404A1, “USE OF R-10-HYDROXY-10,11-DIHYDRO-CARBAMAZEPINE IN NEUROPATHIC PAIN” (priority 2003, published 2009)
